Where two headings read alike, the source gives them in different places.
Tests used:
Type in all cases: cell-based
[1] = system: PANC-1. epithelioid carcinoma of the pancreas cell line bearing KRas^G12D oncogenic mutation; assay: Antiproliferative MTS assay, PANC-1 cells; details: compounds 1-23 and 47-52 median of experiments, 24-46 estimations and/or preliminary results, read-out: IC50 values: cell proliferation inhibition, Panc-1
Description: Cell line #3: PANC-1. epithelioid carcinoma of the pancreas cell line bearing KRas^G12D oncogenic mutation
(§1) Cell lines were cultured in DMEM or RPMI-1640 supplemented with FBS 10%. In order to assess the antiproliferative effect of compounds, cells were seeded at a density of 1.8×10^3, 6.2×10^3, 7.8×10^3, 21×10^3 and 2×10^3 cells/cm^2, respectively, in tissue culture microplates and were incubated in humidified atmosphere at 5% CO2. 24 h later, compounds dissolved in DMSO 100% were added for different final concentrations ranging between 0.1 and 50 μM for a final DMSO concentration of 0.5% and the plates were incubated for another 72 h. After incubation, proliferation was quantified using CellTiter 96® Aqueous Non-Radioactive Cell Proliferation Assay-MTS (Promega #G5421) following manufacturer instructions. Amount of 490 nm absorbance is directly proportional to the number of living cells. Absorbance was recorded with a BMG Fluostar Optima Microplate Reader and normalized to control with vehicle.

[2] = system: A549. Lung carcinoma cell line bearing KRas^G12S oncogenic mutation; assay: Antiproliferative MTS assay, A549 cells; details: compounds 1-23 and 47-52 median of experiments, 24-46 estimations and/or preliminary results, read-out: IC50 values: cell proliferation inhibition, A549
Description: Cell line #1: A549. Lung carcinoma cell line bearing KRas^G12S oncogenic mutation
as §1

[3] = system: RPMI. myeloma cell line bearing KRas^G12A oncogenic mutation; assay: Antiproliferative MTS assay, RPMI cells; details: 72 h, compounds 1-23 and 47-52 median of experiments, 24-46 estimations and/or preliminary results, read-out: IC50 values: cell proliferation inhibition, RPMI
Description: Cell line #4: RPMI. myeloma cell line bearing KRas^G12A oncogenic mutation
as §1

[4] = system: H358. non-small cell lung cancer line bearing KRas^G12C oncogenic mutation; assay: Antiproliferative MTS assay, H358 cells; details: compounds 1-23, 47-52 and Reference Example 1 median of experiments, 24-46 estimations and/or preliminary results, read-out: IC50 values: cell proliferation inhibition, H358
Description: Cell line #2: H358. non-small cell lung cancer line bearing KRas^G12C oncogenic mutation
as §1

SMILES	IC50 ([1]; Homo sapiens, PANC-1, 72 h) [nM]	IC50 ([2]; Homo sapiens, A549, 72 h) [nM]	IC50 [3] [nM]	IC50 ([4]; Homo sapiens, NCI-H358, 72 h) [nM]	IC50 ([1]; 72 h) [nM]	IC50 ([4]; 72 h) [nM]	IC50 ([2]; 72 h) [nM]
CCNC(=O)N1CCc2cc(OC)c(OCCc3ccc(N)c(OC)c3)cc2C1c1ccc(Cl)cc1C (stereo not drawn) [Compound 14]	–	1600	400	–	500	700	–
COc1ccc(CCOc2cc3c(cc2OC)CCN(C(=O)NCc2ccon2)C3c2ccc(C)cc2C)cc1N (stereo not drawn) [Compound 19]	300	1500	500	500	–	–	–
COc1ccc(CCOc2cc3c(cc2OC)CCN(C(=O)NCc2ccon2)C3c2ccc(F)cc2C)cc1N (stereo not drawn) [Compound 22]	600	> 2000	500	700	–	–	–
COc1ccc(CCOc2cc3c(cc2OC)CCN(C(=O)NCC(F)(F)F)C3c2ccc(C(F)(F)F)cc2C)cc1N (stereo not drawn) [Compound 25]	500	> 2000	300	600	–	–	–
COc1ccc(C2c3cc(OCCc4ccc(OC)c(N)c4)c(OC)cc3CCN2C(=O)NCC(F)(F)F)c(C)c1 (stereo not drawn) [Compound 26]	500	1000	200	400	–	–	–
CCNC(=O)N1CCc2cc(OC)c(OCCc3ccc(N)c(OC)c3)cc2C1c1ccc(C(F)(F)F)cc1C (stereo not drawn) [Compound 29]	400	1500	200	500	–	–	–
CCNC(=O)N1CCc2cc(OC)c(OCCc3ccc(N)c(OC)c3)cc2C1c1ccc(OC)cc1C (stereo not drawn) [Compound 30]	500	1000	300	400	–	–	–
COc1cc(CCOc2cc3c(cc2OC)CCN(C(=O)NCc2cocn2)C3c2ccc(C)cc2C)ccc1N (stereo not drawn) [Compound 33]	600	> 2000	700	800	–	–	–
COc1ccc(C2c3cc(OCCc4ccc(N)c(OC)c4)c(OC)cc3CCN2C(=O)NCc2cocn2)c(C)c1 (stereo not drawn) [Compound 35]	400	1000	300	400	–	–	–
COc1cc(CCOc2cc3c(cc2OC)CCN(C(=O)NCc2cocn2)C3c2ccc(F)cc2C)ccc1N (stereo not drawn) [Compound 36]	700	1700	500	900	–	–	–
COc1cc(CCOc2cc3c(cc2OC)CCN(C(=O)NCc2ccon2)C3c2ccc(C)cc2C)ccc1N (stereo not drawn) [Compound 38]	400	1500	200	500	–	–	–
COc1cc(CCOc2cc3c(cc2OC)CCN(C(=O)NCc2ccon2)C3c2ccc(C(F)(F)F)cc2C)ccc1N (stereo not drawn) [Compound 39]	600	> 2000	300	600	–	–	–
COc1cc(CCOc2cc3c(cc2OC)CCN(C(=O)NCc2ccon2)C3c2ccc(F)cc2C)ccc1N (stereo not drawn) [Compound 41]	700	> 2000	900	900	–	–	–
COc1cc(CCOc2cc3c(cc2OC)CCN(C(=O)NCC(F)(F)F)C3c2ccc(C(F)(F)F)cc2C)ccc1N (stereo not drawn) [Compound 44]	500	> 2000	300	800	–	–	–
COc1ccc(C2c3cc(OCCc4ccc(N)c(OC)c4)c(OC)cc3CCN2C(=O)NCC(F)(F)F)c(C)c1 (stereo not drawn) [Compound 45]	300	1000	200	600	–	–	–
COc1cc2c(cc1OCCc1ccc(OC)c([N+](=O)[O-])c1)C(c1ccc(C)cc1C)N(C(=O)NCc1cocn1)CC2 (stereo not drawn) [Compound 49]	1500	> 2000	> 1000	> 800	–	–	–
CCNC(=O)N1CCc2cc(OC)c(OCCc3ccc(OC)c(N)c3)cc2C1c1ccc(C(=O)OC)cc1C (stereo not drawn) [Reference Example 1, reference compound]	–	–	–	300	–	–	–

More lines, in order of falling IC50 [3], values ahead:

IC50 ([1]; Homo sapiens, PANC-1, 72 h) [nM]	IC50 ([2]; Homo sapiens, A549, 72 h) [nM]	IC50 [3] [nM]	IC50 ([4]; Homo sapiens, NCI-H358, 72 h) [nM]	IC50 ([1]; 72 h) [nM]	IC50 ([4]; 72 h) [nM]	IC50 ([2]; 72 h) [nM]	SMILES
400	1000	200	500	–	–	–	COc1ccc(CCOc2cc3c(cc2OC)CCN(C(=O)NCc2cocn2)C3c2ccc(F)cc2C)cc1N (stereo not drawn) [Compound 17]
400	1000	200	400	–	–	–	COc1ccc(CCOc2cc3c(cc2OC)CCN(C(=O)NCc2ccon2)C3c2ccc(C(F)(F)F)cc2C)cc1N (stereo not drawn) [Compound 20]
100	900	100	200	–	–	–	CCNC(=O)N1CCc2cc(OC)c(OCCc3ccc(OC)c(N)c3)cc2C1c1ccc(F)cc1C (stereo not drawn) [Compound 12]
300	1000	100	300	–	–	–	COc1ccc(CCOc2cc3c(cc2OC)CCN(C(=O)NCc2cocn2)C3c2ccc(C(F)(F)F)cc2C)cc1N (stereo not drawn) [Compound 15]
200	1000	100	300	–	–	–	COc1ccc(C2c3cc(OCCc4ccc(OC)c(N)c4)c(OC)cc3CCN2C(=O)NCc2cocn2)c(C)c1 (stereo not drawn) [Compound 16]
200	1000	100	300	–	–	–	COc1ccc(CCOc2cc3c(cc2OC)CCN(C(=O)NCc2cocn2)C3c2ccc(Cl)cc2C)cc1N (stereo not drawn) [Compound 18]
200	900	100	200	–	–	–	COc1ccc(C2c3cc(OCCc4ccc(OC)c(N)c4)c(OC)cc3CCN2C(=O)NCc2ccon2)c(C)c1 (stereo not drawn) [Compound 21]
100	700	100	100	–	–	–	COc1ccc(CCOc2cc3c(cc2OC)CCN(C(=O)NCc2ccon2)C3c2ccc(Cl)cc2C)cc1N (stereo not drawn) [Compound 23]
200	1000	100	200	–	–	–	COc1ccc(CCOc2cc3c(cc2OC)CCN(C(=O)NCC(F)(F)F)C3c2ccc(C)cc2C)cc1N (stereo not drawn) [Compound 24]
300	900	100	300	–	–	–	COc1ccc(CCOc2cc3c(cc2OC)CCN(C(=O)NCC(F)(F)F)C3c2ccc(F)cc2C)cc1N (stereo not drawn) [Compound 27]
200	800	100	300	–	–	–	COc1ccc(CCOc2cc3c(cc2OC)CCN(C(=O)NCC(F)(F)F)C3c2ccc(Cl)cc2C)cc1N (stereo not drawn) [Compound 28]
400	> 2000	100	500	–	–	–	CCNC(=O)N1CCc2cc(OC)c(OCCc3ccc(N)c(OC)c3)cc2C1c1ccc(F)cc1C (stereo not drawn) [Compound 31]
–	–	100	–	200	300	1000	CCNC(=O)N1CCc2cc(OC)c(OCCc3ccc(N)c(OC)c3)cc2C1c1ccc(Cl)cc1C (stereo not drawn) [Compound 32]
400	1200	100	500	–	–	–	COc1cc(CCOc2cc3c(cc2OC)CCN(C(=O)NCc2cocn2)C3c2ccc(C(F)(F)F)cc2C)ccc1N (stereo not drawn) [Compound 34]
400	1500	100	400	–	–	–	COc1cc(CCOc2cc3c(cc2OC)CCN(C(=O)NCc2cocn2)C3c2ccc(Cl)cc2C)ccc1N (stereo not drawn) [Compound 37]
300	1000	100	300	–	–	–	COc1ccc(C2c3cc(OCCc4ccc(N)c(OC)c4)c(OC)cc3CCN2C(=O)NCc2ccon2)c(C)c1 (stereo not drawn) [Compound 40]
300	1000	100	300	–	–	–	COc1cc(CCOc2cc3c(cc2OC)CCN(C(=O)NCc2ccon2)C3c2ccc(Cl)cc2C)ccc1N (stereo not drawn) [Compound 42]
200	1000	100	300	–	–	–	COc1cc(CCOc2cc3c(cc2OC)CCN(C(=O)NCC(F)(F)F)C3c2ccc(C)cc2C)ccc1N (stereo not drawn) [Compound 43]
300	1000	100	500	–	–	–	COc1cc(CCOc2cc3c(cc2OC)CCN(C(=O)NCC(F)(F)F)C3c2ccc(F)cc2C)ccc1N (stereo not drawn) [Compound 46]

Source: US20220380357A1, “TETRAHYDROISOQUINOLINE COMPOUNDS” (ALLINKY BIOPHARMA, priority 2019, published 2022)
